# Results from ChEMBL document CHEMBL4715855, “N-phenyl ureidobenzenesulfonates, a novel class of promising human dihydroorotate dehydrogenase inhibitors” (Bioorg Med Chem, 2020).
# Assays:
# Assay type in all cases: functional, cell-based
# HT-29 [1] = assay: Antiproliferative activity against human HT-29 cells assessed as cell growth inhibition measured after 48 hrs by SRB assay; conditions: HT-29, 48 h
# M21 [2] = assay: Antiproliferative activity against human M21 cells assessed as cell growth inhibition measured after 48 hrs by SRB assay; conditions: M21, 48 h
# HT-29 [3] = assay: Antiproliferative activity against human HT-29 cells assessed as cell growth inhibition measured after 48 hrs in presence of uridine by SRB assay; conditions: HT-29, 48 h
# M21 [4] = assay: Antiproliferative activity against human M21 cells assessed as cell growth inhibition measured after 48 hrs in presence of uridine by SRB assay; conditions: M21, 48 h
# HT-1080 [5] = assay: Antiproliferative activity against human HT-1080 cells assessed as cell growth inhibition measured after 48 hrs in presence of uridine by SRB assay; conditions: HT-1080, 48 h
# MCF7 [6] = assay: Antiproliferative activity against human MCF7 cells assessed as cell growth inhibition measured after 48 hrs in presence of uridine by SRB assay; conditions: MCF7, 48 h
# HT-1080 [7] = assay: Antiproliferative activity against human HT-1080 cells assessed as cell growth inhibition measured after 48 hrs by SRB assay; conditions: HT-1080, 48 h
# MCF7 [8] = assay: Antiproliferative activity against human MCF7 cells assessed as cell growth inhibition measured after 48 hrs by SRB assay; conditions: MCF7, 48 h
# CCRF-CEM = assay: Antiproliferative activity against human CCRF-CEM cells assessed as cell growth inhibition measured after 48 hrs by sulforhodamine B assay
# K562 = assay: Antiproliferative activity against human K562 cells assessed as cell growth inhibition incubated for 48 hrs by sulforhodamine B assay; conditions: K562, 48 h
# MOLT-4 = assay: Antiproliferative activity against human MOLT-4 cells assessed as cell growth inhibition measured after 48 hrs by sulforhodamine B assay; conditions: MOLT-4, 48 h
# RPMI-8226 = assay: Antiproliferative activity against human RPMI-8226 cells assessed as cell growth inhibition measured after 48 hrs by sulforhodamine B assay; conditions: RPMI-8226, 48 h
# SR = assay: Antiproliferative activity against human SR cells assessed as cell growth inhibition measured after 48 hrs by sulforhodamine B assay
# A549 = assay: Antiproliferative activity against human A549/ATCC cells assessed as cell growth inhibition measured after 48 hrs by sulforhodamine B assay; conditions: A549, 48 h
# HOP-62 = assay: Antiproliferative activity against human HOP-62 cells assessed as cell growth inhibition measured after 48 hrs by sulforhodamine B assay; conditions: HOP-62, 48 h
# HOP-92 = assay: Antiproliferative activity against human HOP-92 cells assessed as cell growth inhibition measured after 48 hrs by sulforhodamine B assay; conditions: HOP-92, 48 h
# NCI-H226 = assay: Antiproliferative activity against human NCI-H226 cells assessed as cell growth inhibition measured after 48 hrs by sulforhodamine B assay; conditions: NCI-H226, 48 h
# NCI-H23 = assay: Antiproliferative activity against human NCI-H23 cells assessed as cell growth inhibition measured after 48 hrs by sulforhodamine B assay; conditions: NCI-H23, 48 h
# NCI-H322M = assay: Antiproliferative activity against human NCI-H322M cells assessed as cell growth inhibition measured after 48 hrs by sulforhodamine B assay
# NCI-H460 = assay: Antiproliferative activity against human NCI-H460 cells assessed as cell growth inhibition measured after 48 hrs by sulforhodamine B assay; conditions: NCI-H460, 48 h
# NCI-H522 = assay: Antiproliferative activity against human NCI-H522 cells assessed as cell growth inhibition measured after 48 hrs by sulforhodamine B assay; conditions: NCI-H522, 48 h
# COLO 205 = assay: Antiproliferative activity against human COLO 205 cells assessed as cell growth inhibition measured after 48 hrs by sulforhodamine B assay; conditions: COLO 205, 48 h
# HCC 2998 = assay: Antiproliferative activity against human HCC 2998 cells assessed as cell growth inhibition measured after 48 hrs by sulforhodamine B assay; conditions: HCC 2998, 48 h
# HCT-116 = assay: Antiproliferative activity against human HCT-116 cells assessed as cell growth inhibition measured after 48 hrs by sulforhodamine B assay; conditions: HCT-116, 48 h
# HCT-15 = assay: Antiproliferative activity against human HCT-15 cells assessed as cell growth inhibition measured after 48 hrs by sulforhodamine B assay; conditions: HCT-15, 48 h
# KM12 = assay: Antiproliferative activity against human KM12 cells assessed as cell growth inhibition measured after 48 hrs by sulforhodamine B assay; conditions: KM12, 48 h
# SW-620 = assay: Antiproliferative activity against human SW-620 cells assessed as cell growth inhibition measured after 48 hrs by sulforhodamine B assay; conditions: SW-620, 48 h
# 786-0 = assay: Antiproliferative activity against human 786-0 cells assessed as cell growth inhibition measured after 48 hrs by sulforhodamine B assay; conditions: 786-0, 48 h
# A498 = assay: Antiproliferative activity against human A498 cells assessed as cell growth inhibition measured after 48 hrs by sulforhodamine B assay; conditions: A498, 48 h
# ACHN = assay: Antiproliferative activity against human ACHN cells assessed as cell growth inhibition measured after 48 hrs by sulforhodamine B assay
# CAKI-1 = assay: Antiproliferative activity against human CAKI-1 cells assessed as cell growth inhibition measured after 48 hrs by sulforhodamine B assay; conditions: CAKI-1, 48 h
# RXF 393 = assay: Antiproliferative activity against human RXF 393 cells assessed as cell growth inhibition measured after 48 hrs by sulforhodamine B assay; conditions: RXF 393, 48 h
# SN12C = assay: Antiproliferative activity against human SN12C cells assessed as cell growth inhibition measured after 48 hrs by sulforhodamine B assay
# TK-10 = assay: Antiproliferative activity against human TK-10 cells assessed as cell growth inhibition measured after 48 hrs by sulforhodamine B assay; conditions: TK-10, 48 h
# UO-31 = assay: Antiproliferative activity against human UO-31 cells assessed as cell growth inhibition measured after 48 hrs by sulforhodamine B assay; conditions: UO-31, 48 h
# SF-268 = assay: Antiproliferative activity against human SF-268 cells assessed as cell growth inhibition measured after 48 hrs by sulforhodamine B assay; conditions: SF-268, 48 h
# SF-295 = assay: Antiproliferative activity against human SF-295 cells assessed as cell growth inhibition measured after 48 hrs by sulforhodamine B assay; conditions: SF-295, 48 h
# SF-539 = assay: Antiproliferative activity against human SF-539 cells assessed as cell growth inhibition measured after 48 hrs by sulforhodamine B assay; conditions: SF-539, 48 h
# SNB-19 = assay: Antiproliferative activity against human SNB-19 cells assessed as cell growth inhibition measured after 48 hrs by sulforhodamine B assay; conditions: SNB-19, 48 h
# SNB-75 = assay: Antiproliferative activity against human SNB-75 cells assessed as cell growth inhibition measured after 48 hrs by sulforhodamine B assay; conditions: SNB-75, 48 h
# U-251 = assay: Antiproliferative activity against human U-251 cells assessed as cell growth inhibition measured after 48 hrs by sulforhodamine B assay; conditions: U-251, 48 h
# LOX IMVI = assay: Antiproliferative activity against human LOX IMVI cells assessed as cell growth inhibition measured after 48 hrs by sulforhodamine B assay
# Malme-3M = assay: Antiproliferative activity against human Malme-3M cells assessed as cell growth inhibition measured after 48 hrs by sulforhodamine B assay
# M14 = assay: Antiproliferative activity against human M14 cells assessed as cell growth inhibition measured after 48 hrs by sulforhodamine B assay; conditions: M14, 48 h
# MDA-MB-435 = assay: Antiproliferative activity against human MDA-MB-435 cells assessed as cell growth inhibition measured after 48 hrs by sulforhodamine B assay; conditions: MDA-MB-435, 48 h
# SK-MEL-2 = assay: Antiproliferative activity against human SK-MEL-2 cells assessed as cell growth inhibition measured after 48 hrs by sulforhodamine B assay; conditions: SK-MEL-2, 48 h
# SK-MEL-28 = assay: Antiproliferative activity against human SK-MEL-28 cells assessed as cell growth inhibition measured after 48 hrs by sulforhodamine B assay; conditions: SK-MEL-28, 48 h
# SK-MEL-5 = assay: Antiproliferative activity against human SK-MEL-5 cells assessed as cell growth inhibition measured after 48 hrs by sulforhodamine B assay; conditions: SK-MEL-5, 48 h
# UACC-257 = assay: Antiproliferative activity against human UACC-257 cells assessed as cell growth inhibition measured after 48 hrs by sulforhodamine B assay; conditions: UACC-257, 48 h
# UACC-62 = assay: Antiproliferative activity against human UACC-62 cells assessed as cell growth inhibition measured after 48 hrs by sulforhodamine B assay; conditions: UACC-62, 48 h
# IGROV-1 = assay: Antiproliferative activity against human IGROV-1 cells assessed as cell growth inhibition measured after 48 hrs by sulforhodamine B assay; conditions: IGROV-1, 48 h
# OVCAR-3 = assay: Antiproliferative activity against human OVCAR-3 cells assessed as cell growth inhibition measured after 48 hrs by sulforhodamine B assay; conditions: OVCAR-3, 48 h
# OVCAR-4 = assay: Antiproliferative activity against human OVCAR-4 cells assessed as cell growth inhibition measured after 48 hrs by sulforhodamine B assay; conditions: OVCAR-4, 48 h
# OVCAR-5 = assay: Antiproliferative activity against human OVCAR-5 cells assessed as cell growth inhibition measured after 48 hrs by sulforhodamine B assay; conditions: OVCAR-5, 48 h
# OVCAR-8 = assay: Antiproliferative activity against human OVCAR-8 cells assessed as cell growth inhibition measured after 48 hrs by sulforhodamine B assay; conditions: OVCAR-8, 48 h
# NCI/ADR-RES = assay: Antiproliferative activity against human NCI/ADR-RES cells assessed as cell growth inhibition measured after 48 hrs by sulforhodamine B assay
# SK-OV-3 = assay: Antiproliferative activity against human SK-OV-3 cells assessed as cell growth inhibition measured after 48 hrs by sulforhodamine B assay; conditions: SK-OV-3, 48 h
# MDA-MB-231 = assay: Antiproliferative activity against human MDA-MB-231/ATCC cells assessed as cell growth inhibition measured after 48 hrs by sulforhodamine B assay; conditions: MDA-MB-231, 48 h
# Hs-578T = assay: Antiproliferative activity against human Hs-578T cells assessed as cell growth inhibition measured after 48 hrs by sulforhodamine B assay
# BT-549 = assay: Antiproliferative activity against human BT-549 cells assessed as cell growth inhibition measured after 48 hrs by sulforhodamine B assay; conditions: BT-549, 48 h
# T47D = assay: Antiproliferative activity against human T47D cells assessed as cell growth inhibition measured after 48 hrs by sulforhodamine B assay
# PC-3 = assay: Antiproliferative activity against human PC-3 cells assessed as cell growth inhibition measured after 48 hrs by sulforhodamine B assay; conditions: PC-3, 48 h
# DU-145 = assay: Antiproliferative activity against human DU-145 cells assessed as cell growth inhibition measured after 48 hrs by sulforhodamine B assay; conditions: DU-145, 48 h
compound,measurement,setting,value
Cc1c(-c2ccc(-c3ccccc3F)cc2)nc2ccc(F)cc2c1C(=O)O [BREQUINAR],IC50,HT-29 [1]; read-out: IC50,0.59 µM
same,IC50,HT-29 [1]; read-out: pIC50 (converted),0.372 µM
same,IC50,M21 [2],0.57 µM
same,IC50,HT-29 [3],24 µM
same,IC50,M21 [4],25 µM
same,IC50,HT-1080 [5],17 µM
same,IC50,MCF7 [6],25 µM
same,IC50,HT-1080 [7],0.21 µM
same,IC50,MCF7 [8]; read-out: IC50,5.1 µM
same,IC50,MCF7 [8]; read-out: pIC50 (converted),0.269 µM
same,IC50,CCRF-CEM,0.282 µM
same,IC50,K562,0.145 µM
same,IC50,MOLT-4,0.0891 µM
same,IC50,RPMI-8226,0.372 µM
same,IC50,SR,0.427 µM
same,IC50,A549,0.234 µM
same,IC50,HOP-62,1.1 µM
same,IC50,HOP-92,35.5 µM
same,IC50,NCI-H226,19.5 µM
same,IC50,NCI-H23,21.4 µM
same,IC50,NCI-H322M,15.1 µM
same,IC50,NCI-H460,0.129 µM
same,IC50,NCI-H522,2 µM
same,IC50,COLO 205,0.513 µM
same,IC50,HCC 2998,9.55 µM
same,IC50,HCT-116,0.0871 µM
same,IC50,HCT-15,0.0562 µM
same,IC50,KM12,0.209 µM
same,IC50,SW-620,0.38 µM
same,IC50,786-0,0.195 µM
same,IC50,A498,50.1 µM
same,IC50,ACHN,0.151 µM
same,IC50,CAKI-1,0.912 µM
same,IC50,RXF 393,11.7 µM
same,IC50,SN12C,1.78 µM
same,IC50,TK-10,16.2 µM
same,IC50,UO-31,1.15 µM
same,IC50,SF-268,0.372 µM
same,IC50,SF-295,0.24 µM
same,IC50,SF-539,0.347 µM
same,IC50,SNB-19,1.26 µM
same,IC50,SNB-75,81.3 µM
same,IC50,U-251,0.195 µM
same,IC50,LOX IMVI,0.0933 µM
same,IC50,Malme-3M,15.5 µM
same,IC50,M14,4.68 µM
same,IC50,MDA-MB-435,0.372 µM
same,IC50,SK-MEL-2,61.7 µM
same,IC50,SK-MEL-28,10 µM
same,IC50,SK-MEL-5,1.38 µM
same,IC50,UACC-257,12.6 µM
same,IC50,UACC-62,0.263 µM
same,IC50,IGROV-1,0.302 µM
same,IC50,OVCAR-3,3.72 µM
same,IC50,OVCAR-4,2.75 µM
same,IC50,OVCAR-5,38.9 µM
same,IC50,OVCAR-8,0.324 µM
same,IC50,NCI/ADR-RES,2.19 µM
same,IC50,SK-OV-3,16.2 µM
same,IC50,MDA-MB-231,3.63 µM
same,IC50,Hs-578T,6.92 µM
same,IC50,BT-549,57.5 µM
same,IC50,T47D,17 µM
same,IC50,PC-3,0.759 µM
same,IC50,DU-145,0.263 µM
Cc1oncc1C(=O)Nc1ccc(C(F)(F)F)cc1 [LEFLUNOMIDE],IC50,HT-29 [1]; read-out: IC50,75 µM
same,IC50,M21 [2],83 µM
same,IC50,HT-29 [3],75 µM
same,IC50,M21 [4],83 µM
same,IC50,HT-1080 [5],38 µM
same,IC50,MCF7 [6],57 µM
same,IC50,HT-1080 [7],30 µM
same,IC50,MCF7 [8]; read-out: IC50,55 µM
